# From patent publication US20250197355A1, “TEAD Targeting Compounds and Methods Thereof” (Agency for Science, Technology and Research, priority 2022, published 2025)
# Columns and labels:
# Format in all cases: cell-based
# [1] = Colony forming assay for compound 2 and 38 (treatment and 5 days recovery); conditions: treatment and recovery (5 days)
# [2] = system: hippo signaling target proteins (TEAD4, Pan-TEADs, YAP, TAZ); experiment: Immunoblotting of hippo signaling target proteins in A549 whole cell lysates; conditions: A549 cells, 24 hrs; for wild type p53 expression (immunoblot): same protein samples
# Description: Method: A549 cells (at 60% confluency) either mock treated or treated with indicated doses of CPD10 and CPD13 for 24 hrs. Cells were washed with ice-cold 1×PBS and lysed in protein lysis buffer. Whole cell lysates were quantified by Pierce™ BCA Protein assay kit (Catalog number: 23225) and denatured in 4×LDS buffer (Thermo catalog number: NP0007) added with competing amount of DTT followed by boiling for 3 minutes. Samples were resolved in 8% of SDS-PAGE, transferred onto nitrocellulose membrane and immunoblotting was performed with indicated antibodies.
# Result: To determine the CPD10 and CPD13 mediated expression of hippo signaling target proteins in A549 cells, whole cell lysates from mock treated and compounds treated cells were immunoblotted to determine the level of TEAD4, Pan-TEADs, YAP, TAZ proteins. […] Similar to CPD10, CPD13 downregulate YAP expression at 10 Um (B). To determine the level of other transcriptional targets, we tested the p53 protein in same sets of protein samples. […] GAPDH was used as loading control.
# [3] = target: T1, TEAD4 binding to YAP and TAZ (Homo sapiens, UniProt Q15561); experiment: GFP-TRAP assay to pull down TEAD4 binders in U20S cells expressing GFP fused TEAD4; conditions: U20S cells expressing GFP fused TEAD4, 10 uM
# T1 construct: expressed in transfected cells
# Description: GFP-TRAP assay: To purify TEAD4 binders, GFP-Trap Magnetic Agarose (gtma-100) was used, and assay was performed strictly according to manufacturer's instructions. At the end of the assay, agarose beads were resuspended in 2×LDS lysis buffer, competing amount of DTT was added into it and samples were boiled for 3 minutes. Supernatants were collected and used for immunoblotting.
# To determine whether CPD10 or 13 leads downregulation of TEAD4 binding to its transcriptional targets YAP and TAZ, U20S cells stably expressing GFP alone and GFP fused TEAD4 were either mock-treated or treated with indicated doses of CPD10. GFP-TRAP assay was performed to pull down TEAD4 binders, and immunoblotted. As one of the strong binders of the TEAD4, YAP/TAZ protein signal were detected in purified complex. […] The GFP blot indicating the GFP and GFP fused TEAD4 signal in whole cell lysates and purified protein samples (C).
# GFP-TEAD4 = target: T2, GFP-TEAD4 (Homo sapiens, UniProt Q15561); experiment: TEAD4 localization imaging in U20S cells stably expressing GFP-TEAD4; conditions: 10 μM, 18 hrs
# T2 construct: expressed in transfected cells
# Description: Methods: U20S cells stably expressing GFP-TEAD4 were seeded at 50,000 cell densities onto glass cover slips in six well plates. Next day, cells were either DMSO treated or treated with indicated compounds at 10 μM concentrations. After 18 hrs of treatment cells were washed and fixed in 4% formaldehyde for 20 minutes. Blocking was done in 3% BSA dissolved in PBST for 1 hour. Cell were incubated with indicated antibodies for overnight in a cold room. Next day, after washing 3× in PBST samples were incubated with respective secondary antibodies for 45 minutes at room temperature. After washing nuclear staining was done with DAPI for 10 minutes. Coverslips were added onto glass slides with the help of mounting medium. After drying, cells were imaged at 63× objective and processed with ZEN x64 blue software.
# Result: In DMSO treated control samples we observed very nuclear localized TEAD4 (green) signal, strongly imposed to the DAPI signal. Nuclear and cytoplasmic YAP and TAZ was observed either in DMSO or in compound treated cells.
# [4] = system: TEADs transcriptional target genes; experiment: RT PCR transcriptional profiling of TEADs target genes in A549 cells; conditions: for NFKB1 relative expression (RT PCR) / c-MYC relative expression (RT PCR): low dose; for YAP/TAZ relative expression (RT PCR): low dose (2.5 μM of CPD10)
# Description: Method: A549 cells (at 60% confluency) either mock treated or treated with indicated doses of CPD 10 and CPD13 for 24 hrs. Cells were washed with ice-cold 1×PBS. RNA extraction was performed with Quick-RNA™ miniprep kit (Zymo Research, Cat. No. R1055), strictly according to manufacturer's instructions. Nanodrop quantified 2 μg of RNA samples were used for cDNA synthesis with cDNA Reverse Transcription Kit (Thermo Cat. No. 4368814) strictly according to the manufacturer's instructions. In RT PCR experiment, comparative target gene expression was performed by SYBR™ Green (Thermo Cat. No. 4309155) Master mix. Relative target gene expressions were compared and plotted on Y-Axis.
# Result: Relative expression of YAP and TAZ in response to low dose of CPD10 (A) and CPD13 (B) treatment in A549 cells. c-MYC was included as non-transcriptional target of the TEADs. NFKB1 was included as its expression is reciprocal to the YAP/TAZ. Downstream effectors of the TEADs targets (CYR61, AXL, CTGF and ANKRD1) were determined in responses to 2.5, 5 and 10 μM of CPD10 (C) and CPD13 (D).
# CPD10 and CPD13 Downregulate the TEADs transcriptional target genes: To determine CPD10 and CPD13 induced relative expression of TEADs target genes, A549 cells were treated with indicated doses for 24 hrs. Transcriptional profiling was performed with respective primer pairs. […] Further we tested the expression of one of the strong non hippo transcription factor, the C-Myc. As expected, c-MYC expression was not affected in response to CPD10 treatment (A). […] C-Myc expression was not affected. […] An Increase of NFKB1 expression is consistent with significant downregulation of YAP expression in response to CPD13 treatment (B). To determine the state of TEADs transcriptional target genes at higher concentrations, A549 cells were treated with indicated doses of compounds and analyzed for the expression of CYR61, AXL, CTGF and ANKRD1.
# U20S cells [5] = experiment: Cell proliferation assay (Cell Titre Glow) in U20S cells
# Description: (§1) Method: Indicated cells were plated at 3000 cells/80 μl in each well. TEAD4 depletion was performed by reverse transfection with 20 nM of Dharmacon smart pool NTsiRNA and TEAD4 siRNA in 0.25 ul of lipofectamine mixed with 25% of OPTIMEM. After 18 hrs of transfection, cells were recovered for 24 hrs in fresh DMEM medium. Cells were treated with indicated compounds at different doses. After 48 hrs of dosing cells were recovered in fresh medium for 3 days. Cell Titre Glow (CTG) assay was used.
# (§2) U20S cells stably expressing GFP fused TEAD4 and GFP alone were treated with different doses of CPD10 and analysed for cellular proliferation. […] Further we used cell lines expressing higher level of TEAD4 and performed depletion experiment followed by comparative sensitivity analysis.
# A549 cells = experiment: Cell proliferation assay (Cell Titre Glow) in A549 cells with TEAD4 depletion; conditions: TEAD4 depleted A549 cells, compared with NTsi treated cells
# Description: as §1, §2
# U20S cells [6] = experiment: Colony forming assay in U20S cells depleted of or overexpressing TEAD4; conditions: for TEAD4 dependence of cellular sensitivity (siRNA depletion, colony forming): U20S cells, control siRNA vs TEAD4 siRNA
# Description: (§3) In colony forming assay, indicated cells were plated at 5,000 cells density in 2 ml of DMEM medium. TEAD4 depletion was performed by reverse transfection with 20 nM of Dharmacon smart pool NTsiRNA and TEAD4 siRNA in 2.5 ul of lipofectamine mixed with 25% of OPTIMEM. After 18 hrs of transfection, cells were either DMSO treated or treated with indicated compounds at different doses. After 48 hrs of the treatment cells were recovered in a fresh medium for 4 days. At the end of the experiment cells were Glutaraldehyde fixed and stained in crystal violet solution for 2 hrs. After washing, plates were scanned for image processing.
# In line with proliferation assay we performed colony forming assay in U20S cells either depleted or overexpressing TEAD4. Cells stably expressing GFP and GFP fused TEAD4 were also included in this assay.
# YAP-TEAD binding = target: T3, YAP-TEAD binding (Homo sapiens, UniProt Q15561); experiment: Endogenous TEAD4 immunoprecipitation in NCI-H226 mesothelioma cells; conditions: 24 hrs, indicated concentrations
# T3 construct: Endogenous TEAD4 IP; endogenous in cells; host or cells: NCI-H226 mesothelioma cells
# Description: Evaluation of CPD10 and CPD13 in NCI-H226 mesothelioma cell line: Actively growing cells were either DMSO added or treated with indicated concentrations of CPD10 and CPD13 for 24 hrs. Cells were collected in ice-cold PBS and pellets were lysed in IP Lysis Buffer (25 mM Tris-HCl pH 7.4, 150 mM NaCl, 1 mM EDTA, 1% NP-40 and 5% glycerol and competing amount of protease inhibitor). Samples were lysed by sonication, BCA assay was performed and equal concentration of protein were added with TEAD4 antibody (3 ul). After overnight incubation in cold room, samples were added with anti-rabbit magnetic beads to trap the TEAD and binding complex for 2 hrs. Samples were washed 3 times and bound fraction were collected with the help of magnetic stand. Samples were added with 4×LDS, competing amount of DTT, and boiled for 3 minutes. Whole cell lysate (Input) and IP samples were resolved in 8% SDS-PAGE gel and immunoblotted with indicated antibodies.
# (§4) Relative quantification of immunoblot signals were quantified with IMAGE J software. Actively growing cells were added with indicated concentrations of CPD10 and CPD13 and cells were collected after 24 hrs. RNA was extracted and cDNA was synthesized. Indicated primer pairs were used for RT-PCR. Relative gene expression was determined by using GAPDH amplification.
# [7] = system: TEAD transcriptional target genes; experiment: RT-PCR profiling of YAP-TEAD transcriptional target genes in NCI-H226 cells; conditions: 24 hrs
# Description: as §4
# [8] = system: NCI-H226 mesothelioma cells; experiment: Colony forming assay in NCI-H226 mesothelioma cells
# Description: as §3
# Colony forming assay was essentially performed as described in previous section.
# [9] = system: CTGF and CYR61 transcripts; experiment: RT-qPCR of Hippo-dependent gene transcripts in MCF10
# Description: (§5) MGH-CP1 (positive control) and Cpd 13 were tested on MCF10 and A549.
# [10] = system: CTGF and CYR61 transcripts; experiment: RT-qPCR of Hippo-dependent gene transcripts in A549
# Description: as §5
# T2 sequence (Q15561 whole entry): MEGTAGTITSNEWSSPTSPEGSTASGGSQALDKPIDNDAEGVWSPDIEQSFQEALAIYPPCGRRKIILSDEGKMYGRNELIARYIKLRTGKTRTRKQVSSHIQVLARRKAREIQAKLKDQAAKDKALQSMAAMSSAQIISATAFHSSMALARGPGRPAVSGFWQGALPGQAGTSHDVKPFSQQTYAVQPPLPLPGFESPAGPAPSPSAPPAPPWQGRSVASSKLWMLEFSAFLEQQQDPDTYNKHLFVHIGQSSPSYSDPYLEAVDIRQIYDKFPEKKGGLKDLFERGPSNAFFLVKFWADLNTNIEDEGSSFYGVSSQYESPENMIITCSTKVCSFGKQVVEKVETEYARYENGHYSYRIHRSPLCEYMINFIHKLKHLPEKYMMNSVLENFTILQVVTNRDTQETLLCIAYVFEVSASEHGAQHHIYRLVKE
# T3 sequence (Q15561 whole entry): as above
# T1 sequence (Q15561 whole entry, the tested form may be a part): as the sequence (Q15561 whole entry) above
cytoplasmic localization of the TEAD4 protein (GFP-TEAD4),nuclear TEAD4 presence (GFP-TEAD4),"YAP-TEAD binding (TEAD4 IP, immunoblot) (YAP-TEAD binding)",SMILES,TEAD dependence of induced cell sensitivity (colony forming assay) [1],wild type p53 expression (immunoblot) [2],"AXL relative expression (RT PCR) ([4]; 24 hrs, 2.5, 5 and 10 μM)","CTGF relative expression (RT PCR) ([4]; 24 hrs, 2.5, 5 and 10 μM)","CYR61 relative expression (RT PCR) ([4]; 24 hrs, 2.5, 5 and 10 μM)",NFKB1 relative expression (RT PCR) ([4]; 24 hrs),c-MYC relative expression (RT PCR) ([4]; 24 hrs),YAP/TAZ relative expression (RT PCR) ([4]; 24 hrs),"TEAD4 dependence of cellular sensitivity (siRNA depletion, colony forming) (U20S cells [6])",TEAD transcriptional target genes expression (RT-PCR) [7],colony forming sensitivity [8],also measured
–,–,–,C=CS(=O)(=O)CCC(=O)Nc1cc(-c2ccccc2)cnc1C [CPD2],not TEAD dependent,–,–,–,–,–,–,–,–,–,–,–
induction of cytoplasmic localization,didn't diminish,disrupted to a great extent,C=CS(=O)(=O)CCC(=O)Nc1nn(-c2ccccc2)cc1C [CPD10],–,didn't resulted in change,suppressed at 2.5 μM and subsequently downregulated in a dose dependent manner,suppressed at 2.5 μM and subsequently downregulated in a dose dependent manner,suppressed at 2.5 μM and subsequently downregulated in a dose dependent manner,minor increase,not affected,downregulated,TEAD4 dependent,repression,strongly sensitizes,"TAZ expression (immunoblot) ([2]; 10 Um): significantly reduced; TEAD4 and pan-TEAD expression (immunoblot) ([2]; highest concentration): reduced; YAP expression (immunoblot) ([2]; indicated doses): downregulated in a dose dependent manner; YAP/TAZ binding to TEAD4 (GFP-TRAP pull down, immunoblot) [3]: significantly reduced; ANKRD1 relative expression (RT PCR) ([4]; 24 hrs, 10 μM): significantly reduced; cellular proliferation sensitivity (U20S cells [5]; U20S cells expressing GFP alone, low dose): didn't display sensitivity; cellular proliferation sensitivity (U20S cells [5]; U20S cells overexpressing GFP-TEAD4, below 5 uM): higher sensitivity; cellular proliferation sensitivity (A549 cells): lower sensitivity; colony forming sensitivity (U20S cells [6]; U20S cells overexpressing GFP fused TEAD4, in comparison to GFP alone): very high sensitivity; colony forming sensitivity (U20S cells [6]; U20S cells treated with control siRNA, unlike TEAD4 depleted cells, 2.5 μM): very high sensitivity"
induction of cytoplasmic localization,didn't diminish,disrupted to a great extent,C=CS(=O)(=O)CCC(=O)Nc1nc(C2CCCCC2)c(C)s1 [CPD13],–,didn't resulted in change,further downregulated in a dose dependent manner,further downregulated in a dose dependent manner,further downregulated in a dose dependent manner,Increase,not affected,significant reduction,TEAD4 dependent,repression,strongly sensitizes,"YAP expression (immunoblot) ([2]; 10 Um): downregulate; ANKRD1 relative expression (RT PCR) ([4]; 24 hrs, 2.5, 5 and 10 μM): further downregulated in a dose dependent manner; colony forming sensitivity (U20S cells [6]; TEAD4 depleted cells, unlike control siRNA treated cells): less sensitive; CTGF and CYR61 transcripts (RT-qPCR) [9]: dose dependent decrease; CTGF and CYR61 transcripts (RT-qPCR) [10]: dose dependent decrease"
–,–,–,C=CS(=O)(=O)CCC(=O)Nc1cnn(-c2ccccc2)n1 [CPD38],not TEAD dependent,–,–,–,–,–,–,–,–,–,–,–
